Patent US20260209193A1, “NOVEL INHIBITORS OF DNA DAMAGE RESPONSES FOR CANCER THERAPY” (The Regents of the University of California, priority 2022, published 2026)
One block for each compound: values may come before it.

Tests used:
PARP1 = biological target: T1, PARP1 (Homo sapiens, UniProt P09874); assay: PARP1 trapping, chromatin fractionation (chromatin-bound fraction); assay type: cell-based
T1 construct: endogenous in cells; host or cells: PC3
Source text: The trapped PARP1 forms a toxic lesion and stalls the progress of replication forks. The replication fork collapses in BRCA1/2-deficient cancer cells, and then results in cell death. […] Six cancer cell lines were used in this assay, including two breast cancer cell lines, BRCA1-mutunt SUM149PT-BRCA1mut and SUM149PT-BRCA1rev where deleterious BRCA1 mutation is reverted to form a functional BRCA1, two ovarian cancer cell lines, BRCA1-null UWB1.289 and UWB1.289+BRCA1, a stable cell line in which wild-type BRCA1 function has been restored, and two prostate cancer cell lines, enzalutamide resistant C4-2B/MR which is homologous recombination (HR)-deficient due to Rad51 mutation, and enzalutamide insensitive PC3 which is HR-proficient.

ATR = biological target: T2, ATR (Homo sapiens, UniProt Q13535); assay: ATR-mediated signaling: phosphorylation of Rad17 Ser 645 and CHK1 Ser 345 in cells; assay type: cell-based; settings: for ATR inhibition potency relative to JC099 (OLA- or UV-induced phosphorylation of Rad17 and CHK1): compared to JC099
T2 construct: endogenous in cells; host or cells: PC3, C4-2B/MR, SUM149PT-BRCA1rev, UWB1.289+BRCA1, MDA-MB-231
T2 sequence (Q13535 whole entry): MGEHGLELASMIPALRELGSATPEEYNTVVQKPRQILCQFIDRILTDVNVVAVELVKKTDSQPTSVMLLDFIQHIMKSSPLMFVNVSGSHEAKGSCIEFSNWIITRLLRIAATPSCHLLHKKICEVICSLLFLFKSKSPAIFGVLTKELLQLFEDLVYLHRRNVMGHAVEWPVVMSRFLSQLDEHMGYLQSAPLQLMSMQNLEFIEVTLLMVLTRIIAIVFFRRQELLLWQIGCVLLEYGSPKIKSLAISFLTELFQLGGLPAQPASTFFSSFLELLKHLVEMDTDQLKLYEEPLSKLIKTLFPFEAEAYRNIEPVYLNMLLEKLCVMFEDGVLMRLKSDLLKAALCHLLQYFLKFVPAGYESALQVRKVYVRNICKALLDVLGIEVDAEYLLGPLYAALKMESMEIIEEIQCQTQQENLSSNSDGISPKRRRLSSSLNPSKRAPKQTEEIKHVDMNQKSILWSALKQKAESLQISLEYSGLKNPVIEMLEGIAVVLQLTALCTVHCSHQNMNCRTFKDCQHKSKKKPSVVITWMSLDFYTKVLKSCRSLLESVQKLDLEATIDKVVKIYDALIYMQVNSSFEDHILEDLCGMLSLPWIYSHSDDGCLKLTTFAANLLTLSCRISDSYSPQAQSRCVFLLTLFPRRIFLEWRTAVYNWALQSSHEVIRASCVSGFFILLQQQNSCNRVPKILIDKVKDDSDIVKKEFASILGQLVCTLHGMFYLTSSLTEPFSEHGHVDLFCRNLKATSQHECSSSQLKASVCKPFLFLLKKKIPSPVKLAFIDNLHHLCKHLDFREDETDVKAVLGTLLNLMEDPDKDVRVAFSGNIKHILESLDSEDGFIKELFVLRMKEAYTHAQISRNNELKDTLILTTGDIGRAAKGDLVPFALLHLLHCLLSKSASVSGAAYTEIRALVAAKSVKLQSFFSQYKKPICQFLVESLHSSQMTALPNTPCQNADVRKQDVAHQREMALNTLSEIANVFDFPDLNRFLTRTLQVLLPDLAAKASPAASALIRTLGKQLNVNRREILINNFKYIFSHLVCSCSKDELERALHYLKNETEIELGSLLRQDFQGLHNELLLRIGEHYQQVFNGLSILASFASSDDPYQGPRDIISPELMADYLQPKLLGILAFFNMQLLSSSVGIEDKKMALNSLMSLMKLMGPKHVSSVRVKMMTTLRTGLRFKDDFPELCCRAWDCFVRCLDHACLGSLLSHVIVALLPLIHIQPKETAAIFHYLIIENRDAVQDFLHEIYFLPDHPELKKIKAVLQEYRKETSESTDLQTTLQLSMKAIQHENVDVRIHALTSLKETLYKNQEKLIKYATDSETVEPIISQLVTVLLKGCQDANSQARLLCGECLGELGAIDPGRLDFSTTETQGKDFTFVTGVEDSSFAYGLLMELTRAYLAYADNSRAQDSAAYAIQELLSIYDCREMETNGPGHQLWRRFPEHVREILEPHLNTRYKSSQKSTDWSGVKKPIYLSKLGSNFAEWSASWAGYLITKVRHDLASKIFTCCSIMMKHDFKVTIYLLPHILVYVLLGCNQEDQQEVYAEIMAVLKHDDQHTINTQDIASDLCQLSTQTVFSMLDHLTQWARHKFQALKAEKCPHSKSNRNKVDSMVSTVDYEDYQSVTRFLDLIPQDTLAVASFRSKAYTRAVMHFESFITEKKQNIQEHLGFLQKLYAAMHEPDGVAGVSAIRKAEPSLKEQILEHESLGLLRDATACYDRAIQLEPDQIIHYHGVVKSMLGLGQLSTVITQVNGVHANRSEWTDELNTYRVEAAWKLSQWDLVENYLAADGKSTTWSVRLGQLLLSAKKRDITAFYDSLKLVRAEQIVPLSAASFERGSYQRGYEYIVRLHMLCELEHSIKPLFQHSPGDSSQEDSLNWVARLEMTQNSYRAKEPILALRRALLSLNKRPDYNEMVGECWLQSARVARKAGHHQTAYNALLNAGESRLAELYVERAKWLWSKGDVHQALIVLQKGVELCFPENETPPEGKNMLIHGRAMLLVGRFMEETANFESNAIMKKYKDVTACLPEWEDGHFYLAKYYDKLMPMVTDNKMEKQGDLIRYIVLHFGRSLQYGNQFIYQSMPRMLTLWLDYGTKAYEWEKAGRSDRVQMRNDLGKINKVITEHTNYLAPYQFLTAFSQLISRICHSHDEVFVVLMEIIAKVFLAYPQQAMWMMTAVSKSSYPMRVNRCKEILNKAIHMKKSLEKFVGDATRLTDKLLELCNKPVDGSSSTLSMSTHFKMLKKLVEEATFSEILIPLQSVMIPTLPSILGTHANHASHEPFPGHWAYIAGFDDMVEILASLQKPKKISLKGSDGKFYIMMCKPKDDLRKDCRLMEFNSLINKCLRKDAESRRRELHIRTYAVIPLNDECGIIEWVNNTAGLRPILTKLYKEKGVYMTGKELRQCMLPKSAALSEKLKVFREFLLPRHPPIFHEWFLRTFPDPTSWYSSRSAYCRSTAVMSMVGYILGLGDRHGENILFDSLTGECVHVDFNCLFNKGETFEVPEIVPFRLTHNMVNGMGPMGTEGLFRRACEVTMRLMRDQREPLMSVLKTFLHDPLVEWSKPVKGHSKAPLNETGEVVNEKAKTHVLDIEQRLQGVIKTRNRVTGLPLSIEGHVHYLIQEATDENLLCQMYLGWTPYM
T2 sequence (Q8WXE1 whole entry partner): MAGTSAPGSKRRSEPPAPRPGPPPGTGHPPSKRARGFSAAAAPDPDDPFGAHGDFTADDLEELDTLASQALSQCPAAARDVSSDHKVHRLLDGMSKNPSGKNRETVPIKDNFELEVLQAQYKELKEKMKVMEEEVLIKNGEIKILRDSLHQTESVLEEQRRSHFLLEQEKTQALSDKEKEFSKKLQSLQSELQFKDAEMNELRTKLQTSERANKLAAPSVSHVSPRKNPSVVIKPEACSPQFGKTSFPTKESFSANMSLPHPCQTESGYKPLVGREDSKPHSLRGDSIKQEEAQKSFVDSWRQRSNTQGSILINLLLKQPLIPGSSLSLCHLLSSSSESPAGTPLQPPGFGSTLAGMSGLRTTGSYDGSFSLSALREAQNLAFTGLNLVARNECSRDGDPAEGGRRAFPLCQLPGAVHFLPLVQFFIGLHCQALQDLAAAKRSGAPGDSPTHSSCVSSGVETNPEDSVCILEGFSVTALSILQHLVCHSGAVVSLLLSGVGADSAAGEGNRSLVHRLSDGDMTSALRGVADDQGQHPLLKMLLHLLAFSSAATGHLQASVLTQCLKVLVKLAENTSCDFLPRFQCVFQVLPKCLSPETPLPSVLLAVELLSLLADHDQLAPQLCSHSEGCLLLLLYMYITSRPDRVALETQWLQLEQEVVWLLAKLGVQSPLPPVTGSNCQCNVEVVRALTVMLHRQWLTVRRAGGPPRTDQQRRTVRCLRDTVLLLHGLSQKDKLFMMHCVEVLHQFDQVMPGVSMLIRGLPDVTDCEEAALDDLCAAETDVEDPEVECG
Method: PARP inhibitor-resistant cells are increasingly dependent on ATR for survival, and ATR inhibition disrupts restored HR and fork protection pathways in PARP inhibitor resistant BRCA-deficient cancer cells. For ATR kinase in vitro assays, ATR was immunoprecipitated with 3 μg of anti-ATR antibody (Bethyl Laboratories, A300-137A) from 1 mg of cell lysate. […] The IC50 was determined by the enzyme profiling service of Eurofins Cerep (France). […] The phosphorylation of CHK1 at Ser 345 sites was used as a bio-marker of ATR-mediated signaling pathway. The phosphorylation of Rad17 at Ser 645, which is a substrate of ATR, was also examined.
ATR inhibition was assessed in C4-2B/MR cells. Considering ATM is a homologous protein of ATR, we also detected the effect of JC046 analogs on the phosphorylation of KAP1 at Ser 824 and CHK2 at Thr 68 sites, which were used as markers of ATM signaling pathway.

[1] = 0.5 μM and 2 μM, PC3 and C4-2B/MR cells
[2] = 1 μM and 2 μM, PC3 and SUM149PT-BRCA1rev cells

T1 sequence (P09874 whole entry, species assumed): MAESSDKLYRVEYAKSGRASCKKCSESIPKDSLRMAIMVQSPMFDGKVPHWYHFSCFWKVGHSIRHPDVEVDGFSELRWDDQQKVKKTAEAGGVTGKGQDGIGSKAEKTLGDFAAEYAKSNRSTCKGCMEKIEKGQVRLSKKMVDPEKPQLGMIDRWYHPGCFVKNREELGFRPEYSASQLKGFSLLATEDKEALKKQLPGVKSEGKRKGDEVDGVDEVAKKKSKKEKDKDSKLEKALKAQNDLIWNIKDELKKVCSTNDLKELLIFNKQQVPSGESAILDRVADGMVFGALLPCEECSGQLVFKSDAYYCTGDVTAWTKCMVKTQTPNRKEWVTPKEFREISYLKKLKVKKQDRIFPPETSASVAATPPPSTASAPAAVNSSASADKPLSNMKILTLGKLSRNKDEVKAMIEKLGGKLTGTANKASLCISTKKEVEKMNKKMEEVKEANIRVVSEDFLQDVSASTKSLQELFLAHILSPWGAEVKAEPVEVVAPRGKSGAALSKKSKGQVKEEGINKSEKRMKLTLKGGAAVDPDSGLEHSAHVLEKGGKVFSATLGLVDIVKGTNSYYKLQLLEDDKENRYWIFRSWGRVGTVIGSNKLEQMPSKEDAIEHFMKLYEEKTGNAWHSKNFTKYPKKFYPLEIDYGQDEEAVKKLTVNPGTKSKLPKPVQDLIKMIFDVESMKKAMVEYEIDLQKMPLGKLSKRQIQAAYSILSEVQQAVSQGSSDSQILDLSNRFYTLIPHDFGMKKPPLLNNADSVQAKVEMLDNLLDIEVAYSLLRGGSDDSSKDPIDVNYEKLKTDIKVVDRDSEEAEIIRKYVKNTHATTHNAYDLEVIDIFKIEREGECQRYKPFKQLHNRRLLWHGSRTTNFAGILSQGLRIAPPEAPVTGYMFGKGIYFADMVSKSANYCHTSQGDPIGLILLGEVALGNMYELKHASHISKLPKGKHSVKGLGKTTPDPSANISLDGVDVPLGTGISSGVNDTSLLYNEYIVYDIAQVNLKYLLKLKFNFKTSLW

Compound: CCCCN(CCCC)CCOc1ccc(C(=O)NC2C/C(=C\c3ccc(F)c(F)c3)C(=O)/C(=C/c3ccc(F)c(F)c3)C2)cc1 (stereo not drawn) [JCS012, N-(3,5-Bis((E)-3,4-difluorobenzylidene)-4-oxocyclohexyl)-4-(2-(dibutylamino)ethoxy)benzamide]
PARP1 trapped on DNA lesions (PARP1; 0.5 μM and 2 μM, PC3 cells): trapped
PARP1-trapping potency relative to JC099 (PARP1 in the chromatin-bound fraction) (PARP1; PC3 cells): higher potency in PARP1-trapping
ATR inhibition potency relative to JC099 (OLA- or UV-induced phosphorylation of Rad17 and CHK1) (ATR): greater ATR inhibition potential

Compound: CCN(CC)C(=O)c1ccc(C2C/C(=C\c3ccc(F)c(F)c3)C(=O)/C(=C/c3ccc(F)c(F)c3)C2)c2nn(C)cc12 (stereo not drawn) [JCS004, 7-(3,5-bis((E)-3,4-difluorobenzylidene)-4-oxocyclohexyl)-N,N-diethyl-2-methyl-2H-indazole-4-carboxamide]
PARP1 trapped on DNA lesions (PARP1; [1]): trapped
UV induced phosphorylation of CHK1 at Ser 345 (ATR; [2]): inhibited

Compound: CCN(CC)C(=O)c1ccc(C2C/C(=C\c3ccc(F)c(F)c3)C(=O)/C(=C/c3ccc(F)c(F)c3)C2)c2[nH]ncc12 (stereo not drawn) [JCS005, 7-(3,5-bis((E)-3,4-difluorobenzylidene)-4-oxocyclohexyl)-N,N-diethyl-1H-indazole-4-carboxamide]
PARP1 trapped on DNA lesions (PARP1; [1]): trapped
UV induced phosphorylation of CHK1 at Ser 345 (ATR; [2]): inhibited

Compound: CCN(CC)C(=O)Nc1ccc(C(=O)NC2C/C(=C\c3ccc(F)c(F)c3)C(=O)/C(=C/c3ccc(F)c(F)c3)C2)cc1 (stereo not drawn) [JCS059, N-(3,5-bis((E)-3,4-difluorobenzylidene)-4-oxocyclohexyl)-4-(3,3-diethylureido)benzamide]
PARP1 trapped on DNA lesions (PARP1; 0.3 μM, PC3 cells): trapped
Olaparib induced phosphorylation of Rad17 at Ser 645 and CHK1 at Ser 345 (ATR; 1 μM and 2 μM, PC3 cells): inhibited

Compound: CCN(CC)C(=O)c1ccc(C(=O)NC2C/C(=C\c3ccc(F)c(F)c3)C(=O)/C(=C/c3ccc(F)c(F)c3)C2)c2[nH]ncc12 (stereo not drawn) [JCS006, N^7-(3,5-bis((E)-3,4-difluorobenzylidene)-4-oxocyclohexyl)-N^4,N^4-diethyl-1H-indazole-4,7-dicarboxamide]
PARP1 trapped on DNA lesions (PARP1; 0.5 μM, PC3 and C4-2B/MR cells): trapped
Olaparib induced phosphorylation of Rad17 at Ser 645 and CHK1 at Ser 345 (ATR; 2 μM, PC3 cells): inhibited

Compound: CN1CCN(CC(=O)Nc2ccc(C(=O)NC3C/C(=C\c4ccc(F)c(F)c4)C(=O)/C(=C/c4ccc(F)c(F)c4)C3)cc2)CC1 (stereo not drawn) [JCS050, N-(3,5-bis((E)-3,4-difluorobenzylidene)-4-oxocyclohexyl)-4-(2-(4-methylpiperazin-1-yl)acetamido)benzamide]
PARP1 trapped on DNA lesions (PARP1; 0.3 μM, PC3 cells): trapped
PARP1-trapping potency relative to JC099 (PARP1 in the chromatin-bound fraction) (PARP1; PC3 cells): higher potency in PARP1-trapping
ATR inhibition potency relative to JC099 (OLA- or UV-induced phosphorylation of Rad17 and CHK1) (ATR): greater ATR inhibition potential

Compound: CCN(CC)C(=O)c1ccc(C(=O)NC2C/C(=C\c3ccc(F)c(F)c3)C(=O)/C(=C/c3ccc(F)c(F)c3)C2)c2nn(C)cc12 (stereo not drawn) [JCS003, N^7-(3,5-bis((E)-3,4-difluorobenzylidene)-4-oxocyclohexyl)-N^4,N^4-diethyl-2-methyl-2H-indazole-4,7-dicarboxamide]
PARP1 trapped on DNA lesions (PARP1; 0.5 μM, PC3 and C4-2B/MR cells): trapped
Olaparib induced phosphorylation of CHK1 at Ser 345 (ATR; 0.5 μM, 1 μM, 2 μM, PC3 and SUM149PT-BRCA1rev cells): inhibited
Olaparib induced phosphorylation of Rad17 at Ser 645 and CHK1 at Ser 345 (ATR; 2 μM, PC3 cells): inhibited

Compound: O=C1/C(=C/c2ccc(F)c(F)c2)CC(NC(=O)c2ccc(OCCN3CCCC3)cc2)C/C1=C\c1ccc(F)c(F)c1 (stereo not drawn) [JCS008, N-(3,5-Bis((E)-3,4-difluorobenzylidene)-4-oxocyclohexyl)-4-(2-(pyrrolidin-1-yl)ethoxy)benzamide]
PARP1 trapped on DNA lesions (PARP1; 0.5 μM and 2 μM, PC3 cells): trapped
PARP1-trapping potency relative to JC099 (PARP1 in the chromatin-bound fraction) (PARP1; PC3 cells): higher potency in PARP1-trapping
Olaparib induced phosphorylation of Rad17 at Ser 645 and CHK1 at Ser 345 (ATR; 1 μM and 2 μM, PC3 and MDA-MB-231 cells): inhibited

Now from value to compound:

PARP1-trapping potency relative to JC099 (PARP1 in the chromatin-bound fraction) (PARP1; PC3 cells): higher potency in PARP1-trapping
ATR inhibition potency relative to JC099 (OLA- or UV-induced phosphorylation of Rad17 and CHK1) (ATR): greater ATR inhibition potential
Compound: CCN(CCOC)CCOc1ccc(C(=O)NC2C/C(=C\c3ccc(F)c(F)c3)C(=O)/C(=C/c3ccc(F)c(F)c3)C2)cc1 (stereo not drawn) [JCS109, N-(3,5-Bis((E)-3,4-difluorobenzylidene)-4-oxocyclohexyl)-4-(2-(ethyl(2-methoxyethyl)amino)eth-oxy)benzamide]

PARP1-trapping potency relative to JC099 (PARP1 in the chromatin-bound fraction) (PARP1; PC3 cells): their potencies were less than JC099
ATR inhibition potency relative to JC099 (OLA- or UV-induced phosphorylation of Rad17 and CHK1) (ATR): their potencies were close to JC099
Compound: O=C1/C(=C/c2ccc(F)c(F)c2)CC(NC(=O)c2ccc(OCCN3CC4(COC4)C3)cc2)C/C1=C\c1ccc(F)c(F)c1 (stereo not drawn) [JCS151, 4-(2-(2-Oxa-6-azaspiro[3.3]heptan-6-yl)ethoxy)-N-(3,5-bis((E)-3,4-difluorobenzylidene)-4-oxocyclohexyl)benzamide]

PARP1-trapping potency relative to JC099 (PARP1 in the chromatin-bound fraction) (PARP1; PC3 cells): higher potency in PARP1-trapping
ATR inhibition potency relative to JC099 (OLA- or UV-induced phosphorylation of Rad17 and CHK1) (ATR): less ATR inhibition potencies
Compound: CCN(CC)CCOc1ccc(C(=O)NC2C/C(=C\c3ccc(F)c(F)c3F)C(=O)/C(=C/c3ccc(F)c(F)c3F)C2)cc1 (stereo not drawn) [JCS159, 4-(2-(Diethylamino)ethoxy)-N-(4-oxo-3,5-bis((E)-2,3,4-trifluorobenzylidene)cyclohexyl)benzamide]

PARP1 trapped on DNA lesions (PARP1; 0.3 μM, PC3 cells): trapped
Olaparib induced phosphorylation of Rad17 at Ser 645 and CHK1 at Ser 345 (ATR; 1 μM and 2 μM, PC3 cells): inhibited
Compound: CCCN(CCC)CCOc1ccc(C(=O)NC2C/C(=C\c3cc(Cl)cc(Cl)c3)C(=O)/C(=C/c3cc(Cl)cc(Cl)c3)C2)cc1 (stereo not drawn) [JCS062, N-(3,5-Bis((E)-3,5-dichlorobenzylidene)-4-oxocyclohexyl)-4-(2-(dipropylamino)ethoxy)benzamide]

PARP1-trapping potency relative to JC099 (PARP1 in the chromatin-bound fraction) (PARP1; PC3 cells): their potencies were less than JC099
ATR inhibition potency relative to JC099 (OLA- or UV-induced phosphorylation of Rad17 and CHK1) (ATR): greater ATR inhibition potential
Compound: CN1CCC[C@H]1CNc1ccc(C(=O)NC2C/C(=C\c3ccc(F)c(F)c3)C(=O)/C(=C/c3ccc(F)c(F)c3)C2)cc1 (stereo partly drawn) [JCS160, N-(3,5-Bis((E)-3,4-difluorobenzylidene)-4-oxocyclohexyl)-4-((((S)-1-methylpyrrolidin-2-yl)methyl)-amino)benzamide]

PARP1-trapping potency relative to JC099 (PARP1 in the chromatin-bound fraction) (PARP1; PC3 cells): higher potency in PARP1-trapping
ATR inhibition potency relative to JC099 (OLA- or UV-induced phosphorylation of Rad17 and CHK1) (ATR): their potencies were close to JC099
Compound: O=C1/C(=C/c2ccc(F)c(F)c2)CC(NC(=O)c2cnc(NCCN3CCCC3)cc2C(F)(F)F)C/C1=C\c1ccc(F)c(F)c1 (stereo not drawn) [JCS094, N-(3,5-Bis((E)-3,4-difluorobenzylidene)-4-oxocyclohexyl)-6-((2-(pyrrolidin-1-yl)ethyl)amino)-4-(trifluoromethyl)nicotinamide]

PARP1-trapping potency relative to JC099 (PARP1 in the chromatin-bound fraction) (PARP1; PC3 cells): their potencies were less than JC099
ATR inhibition potency relative to JC099 (OLA- or UV-induced phosphorylation of Rad17 and CHK1) (ATR): their potencies were close to JC099
Compound: O=C1/C(=C/c2ccc(F)c(F)c2)CC(NC(=O)c2ccc(OCCNN3CCCCC3)cc2)C/C1=C\c1ccc(F)c(F)c1 (stereo not drawn) [JCS150, N-(3,5-Bis((E)-3,4-difluorobenzylidene)-4-oxocyclohexyl)-4-(2-(piperidin-1-ylamino)ethoxy)-benzamide]

PARP1-trapping potency relative to JC099 (PARP1 in the chromatin-bound fraction) (PARP1; PC3 cells): their potencies were less than JC099
ATR inhibition potency relative to JC099 (OLA- or UV-induced phosphorylation of Rad17 and CHK1) (ATR): less ATR inhibition potencies
Compound: CCN(CC)CCOc1ccc(C(=O)NC2C/C(=C\c3ccc(F)cc3)C(=O)/C(=C/c3ccc(F)cc3)C2)cc1 (stereo not drawn) [JCS149, N-(3,5-Bis((E)-4-fluorobenzylidene)-4-oxocyclohexyl)-4-(2-(diethylamino)ethoxy)benzamide]
